Assay results from article PMC12028158, “Synthesis and In Vitro Evaluation of the Anticancer Effect of Novel Phosphonium Vindoline Derivatives” (International Journal of Molecular Sciences, 2025).
Where two headings read alike, the source gives them in different places.

How the values were obtained:
Type in all cases: cell-based
CCRF-CEM [1] = test: NCI60 five-dose screen; details: Homo sapiens
K-562 = test: NCI60 five-dose screen; details: Homo sapiens, K562
RPMI-8226 = test: NCI60 five-dose screen; details: Homo sapiens, RPMI-8226
EKVX [2] = test: NCI60 five-dose screen; details: Homo sapiens
HOP-62 [3] = test: NCI60 five-dose screen; details: Homo sapiens, HOP-62
NCI-H460 = test: NCI60 five-dose screen; details: Homo sapiens, NCI-H460
NCI-H522 [4] = test: NCI60 five-dose screen; details: Homo sapiens, NCI-H522
HCC-2998 = test: NCI60 five-dose screen; details: Homo sapiens, HCC 2998
SW-620 = test: NCI60 five-dose screen; details: Homo sapiens, SW-620
U251 [5] = test: NCI60 five-dose screen; details: Homo sapiens, U-251
LOX IMVI [6] = test: NCI60 five-dose screen; details: Homo sapiens
IGROV1 [7] = test: NCI60 five-dose screen; details: Homo sapiens, IGROV-1
OVCAR-5 = test: NCI60 five-dose screen; details: Homo sapiens, OVCAR-5
ACHN = test: NCI60 five-dose screen; details: Homo sapiens
CAKI-1 = test: NCI60 five-dose screen; details: Homo sapiens, CAKI-1
RXF 393 = test: NCI60 five-dose screen; details: Homo sapiens, RXF 393
TK-10 = test: NCI60 five-dose screen; details: Homo sapiens, TK-10
PC-3 = test: NCI60 five-dose screen; details: Homo sapiens, PC-3
T-47D [8] = test: NCI60 five-dose screen; details: Homo sapiens, T47D
MDA-MB-468 = test: NCI60 five-dose screen; details: Homo sapiens, MDA-MB-468
Leukemia panel = test: NCI60 five-dose screen, panel mean; details: Homo sapiens
Melanoma panel = test: NCI60 five-dose screen, panel mean; details: Homo sapiens
Prostate Cancer panel = test: NCI60 five-dose screen, panel mean; details: Homo sapiens
CCRF-CEM [9] = test: NCI60 one-dose screen; details: Homo sapiens, read-out: Growth percent
HL-60(TB) = test: NCI60 one-dose screen; details: Homo sapiens, HL-60, read-out: Growth percent
SR = test: NCI60 one-dose screen; details: Homo sapiens, read-out: Growth percent
EKVX [10] = test: NCI60 one-dose screen; details: Homo sapiens, read-out: Growth percent
HOP-62 [11] = test: NCI60 one-dose screen; details: Homo sapiens, HOP-62, read-out: Growth percent
HOP-92 = test: NCI60 one-dose screen; details: Homo sapiens, HOP-92, read-out: Growth percent
NCI-H522 [12] = test: NCI60 one-dose screen; details: Homo sapiens, NCI-H522, read-out: Growth percent
SF-539 = test: NCI60 one-dose screen; details: Homo sapiens, SF-539, read-out: Growth percent
U251 [13] = test: NCI60 one-dose screen; details: Homo sapiens, U-251, read-out: Growth percent
LOX IMVI [14] = test: NCI60 one-dose screen; details: Homo sapiens, read-out: Growth percent
MDA-MB-435 = test: NCI60 one-dose screen; details: Homo sapiens, MDA-MB-435, read-out: Growth percent
SK-MEL-2 = test: NCI60 one-dose screen; details: Homo sapiens, SK-MEL-2, read-out: Growth percent
UACC-257 = test: NCI60 one-dose screen; details: Homo sapiens, UACC-257, read-out: Growth percent
UACC-62 = test: NCI60 one-dose screen; details: Homo sapiens, UACC-62, read-out: Growth percent
IGROV1 [15] = test: NCI60 one-dose screen; details: Homo sapiens, IGROV-1, read-out: Growth percent
NCI/ADR-RES = test: NCI60 one-dose screen; details: Homo sapiens, read-out: Growth percent
786-0 = test: NCI60 one-dose screen; details: Homo sapiens, 786-0, read-out: Growth percent
A498 = test: NCI60 one-dose screen; details: Homo sapiens, A498, read-out: Growth percent
UO-31 = test: NCI60 one-dose screen; details: Homo sapiens, UO-31, read-out: Growth percent
DU-145 = test: NCI60 one-dose screen; details: Homo sapiens, DU-145, read-out: Growth percent
MCF7 = test: NCI60 one-dose screen; details: Homo sapiens, MCF7, read-out: Growth percent
MDA-MB-231/ATCC = test: NCI60 one-dose screen; details: Homo sapiens, MDA-MB-231, read-out: Growth percent
HS 578T = test: NCI60 one-dose screen; details: Homo sapiens, Hs-578T, read-out: Growth percent
T-47D [16] = test: NCI60 one-dose screen; details: Homo sapiens, T47D, read-out: Growth percent

SMILES: CC[C@]12C=CCN3CC[C@@]4(c5ccc(OC)cc5N(C)[C@H]4[C@@](O)(C(=O)OC)[C@@H]1OC(=O)CCC[P+](C1CCCCC1)(C1CCCCC1)C1CCCCC1)[C@@H]32 [9d]
- GI50 (CCRF-CEM [1]): 1690 nM
- GI50 (K-562): 1320 nM
- GI50 (RPMI-8226): 383 nM
- GI50 (EKVX [2]): 3090 nM
- GI50 (HOP-62 [3]): 3680 nM
- GI50 (NCI-H460): 2770 nM
- GI50 (NCI-H522 [4]): 6880 nM
- GI50 (HCC-2998): 1700 nM
- GI50 (SW-620): 2950 nM
- GI50 (U251 [5]): 746 nM
- GI50 (LOX IMVI [6]): 2880 nM
- GI50 (IGROV1 [7]): 1390 nM
- GI50 (OVCAR-5): 3190 nM
- GI50 (ACHN): 15200 nM
- GI50 (CAKI-1): 16400 nM
- GI50 (RXF 393): 1470 nM
- GI50 (TK-10): 2730 nM
- GI50 (PC-3): 1710 nM
- GI50 (T-47D [8]): 1320 nM
- GI50 (MDA-MB-468): 313 nM
- GI50 (Leukemia panel; read-out: Mean GI50): 1200 nM
- GI50 (Melanoma panel; read-out: Mean GI50): 1700 nM
- GI50 (Prostate Cancer panel; read-out: Mean GI50): 2730 nM
- activity at 10 µM (CCRF-CEM [9]): -40.9%
- activity at 10 µM (HL-60(TB)): -37.1%
- activity at 10 µM (SR): 29.1%
- activity at 10 µM (EKVX [10]): 15.4%
- activity at 10 µM (HOP-62 [11]): 4.26%
- activity at 10 µM (HOP-92): -43.8%
- activity at 10 µM (NCI-H522 [12]): -82.2%
- activity at 10 µM (SF-539): -86.5%
- activity at 10 µM (U251 [13]): -82.5%
- activity at 10 µM (LOX IMVI [14]): -96%
- activity at 10 µM (MDA-MB-435): -80.1%
- activity at 10 µM (SK-MEL-2): -84.9%
- activity at 10 µM (UACC-257): -80.9%
- activity at 10 µM (UACC-62): -97.3%
- activity at 10 µM (IGROV1 [15]): -86%
- activity at 10 µM (NCI/ADR-RES): 100%
- activity at 10 µM (786-0): -16.2%
- activity at 10 µM (A498): 21.8%
- activity at 10 µM (UO-31): 76.8%
- activity at 10 µM (DU-145): 15.7%
- activity at 10 µM (MCF7): -72.2%
- activity at 10 µM (MDA-MB-231/ATCC): -90.8%
- activity at 10 µM (HS 578T): -33%
- activity at 10 µM (T-47D [16]): -1.81%

SMILES: CC[C@]12C=CCN3CC[C@@]4(c5ccc(OC)cc5N(C)[C@H]4[C@@](O)(C(=O)OC)[C@@H]1OC(=O)CCC[P+](c1ccccc1)(c1ccccc1)c1ccccc1OC)[C@@H]32 [9f]
- GI50 (CCRF-CEM [1]): 256 nM
- GI50 (K-562): 125 nM
- GI50 (RPMI-8226): 106 nM
- GI50 (EKVX [2]): 1220 nM
- GI50 (HOP-62 [3]): 2160 nM
- GI50 (NCI-H460): 774 nM
- GI50 (NCI-H522 [4]): 339 nM
- GI50 (HCC-2998): 325 nM
- GI50 (SW-620): 637 nM
- GI50 (U251 [5]): 248 nM
- GI50 (LOX IMVI [6]): 429 nM
- GI50 (IGROV1 [7]): 510 nM
- GI50 (OVCAR-5): 735 nM
- GI50 (ACHN): 4580 nM
- GI50 (CAKI-1): 1900 nM
- GI50 (RXF 393): 247 nM
- GI50 (TK-10): 1940 nM
- GI50 (PC-3): 268 nM
- GI50 (T-47D [8]): 302 nM
- GI50 (MDA-MB-468): 129 nM
- GI50 (Leukemia panel; read-out: Mean GI50): 220 nM
- GI50 (Melanoma panel; read-out: Mean GI50): 490 nM
- GI50 (Prostate Cancer panel; read-out: Mean GI50): 340 nM
- activity at 10 µM (CCRF-CEM [9]): 0.92%
- activity at 10 µM (HL-60(TB)): -5.95%
- activity at 10 µM (SR): -7.49%
- activity at 10 µM (EKVX [10]): -8.21%
- activity at 10 µM (HOP-62 [11]): -13.7%
- activity at 10 µM (HOP-92): -58.4%
- activity at 10 µM (NCI-H522 [12]): -70.4%
- activity at 10 µM (SF-539): -93.8%
- activity at 10 µM (U251 [13]): -96.9%
- activity at 10 µM (LOX IMVI [14]): -95.7%
- activity at 10 µM (MDA-MB-435): -73.7%
- activity at 10 µM (SK-MEL-2): -98%
- activity at 10 µM (UACC-257): -73%
- activity at 10 µM (UACC-62): -73.2%
- activity at 10 µM (IGROV1 [15]): -43.2%
- activity at 10 µM (NCI/ADR-RES): 75.9%
- activity at 10 µM (786-0): -74.1%
- activity at 10 µM (A498): -10.4%
- activity at 10 µM (UO-31): 44%
- activity at 10 µM (DU-145): 1.94%
- activity at 10 µM (MCF7): -68.1%
- activity at 10 µM (MDA-MB-231/ATCC): -94.5%
- activity at 10 µM (HS 578T): -47.4%
- activity at 10 µM (T-47D [16]): -25%

SMILES: CC[C@]12C=CCN3CC[C@@]4(c5ccc(OC)cc5N(C)[C@H]4[C@@](O)(C(=O)OC)[C@@H]1OC(=O)CCCC[P+](c1ccc(C)cc1)(c1ccc(C)cc1)c1ccc(C)cc1)[C@@H]32 [10a]
- GI50 (CCRF-CEM [1]): 768 nM
- GI50 (K-562): 654 nM
- GI50 (RPMI-8226): 283 nM
- GI50 (EKVX [2]): 1050 nM
- GI50 (HOP-62 [3]): 1370 nM
- GI50 (NCI-H460): 600 nM
- GI50 (NCI-H522 [4]): 306 nM
- GI50 (HCC-2998): 520 nM
- GI50 (SW-620): 761 nM
- GI50 (U251 [5]): 470 nM
- GI50 (LOX IMVI [6]): 797 nM
- GI50 (IGROV1 [7]): 479 nM
- GI50 (OVCAR-5): 1440 nM
- GI50 (ACHN): 2540 nM
- GI50 (CAKI-1): 7460 nM
- GI50 (RXF 393): 468 nM
- GI50 (TK-10): 1490 nM
- GI50 (PC-3): 450 nM
- GI50 (T-47D [8]): 370 nM
- GI50 (MDA-MB-468): 264 nM
- GI50 (Leukemia panel; read-out: GI50 Mean): 480 nM
- GI50 (Melanoma panel; read-out: GI50 Mean): 920 nM
- GI50 (Prostate Cancer panel; read-out: GI50 Mean): 800 nM
- activity at 10 µM (CCRF-CEM [9]): -72.4%
- activity at 10 µM (HL-60(TB)): -42.2%
- activity at 10 µM (SR): 25.8%
- activity at 10 µM (EKVX [10]): -93.8%
- activity at 10 µM (HOP-62 [11]): -84%
- activity at 10 µM (HOP-92): -77.9%
- activity at 10 µM (NCI-H522 [12]): -82.7%
- activity at 10 µM (SF-539): -98.7%
- activity at 10 µM (U251 [13]): -93.6%
- activity at 10 µM (LOX IMVI [14]): -94.5%
- activity at 10 µM (MDA-MB-435): -86.8%
- activity at 10 µM (SK-MEL-2): -87.2%
- activity at 10 µM (UACC-257): -95%
- activity at 10 µM (UACC-62): -97.4%
- activity at 10 µM (IGROV1 [15]): -91.8%
- activity at 10 µM (NCI/ADR-RES): 71.8%
- activity at 10 µM (786-0): -91%
- activity at 10 µM (A498): -90.9%
- activity at 10 µM (UO-31): -96%
- activity at 10 µM (DU-145): -84.5%
- activity at 10 µM (MCF7): -81.2%
- activity at 10 µM (MDA-MB-231/ATCC): -97.2%
- activity at 10 µM (HS 578T): -69.9%
- activity at 10 µM (T-47D [16]): -64.5%
